According to patent US8034899B2, “HIV fusion inhibitor peptides with improved biological properties” (priority 2006, dated 2011):

Key:
[1] = Pharmacokinetics after intravenous dosing in cynomolgus monkeys; assay type: in vivo, cynomolgus monkeys (Macaca fasicularis); settings: plasma
Protocol: For determining pharmacokinetic properties, an HIV fusion inhibitor peptide or a base sequence from which an HIV fusion inhibitor peptide is derived was dosed intravenously in cynomolgus monkeys (Macaca fasicularis) (other animal models may be used for determining pharmacokinetic properties, as known in the art). At various times post-dose, blood samples were drawn and plasma isolated by centrifugation. Plasma samples were stored frozen until analysis by LC-MS (liquid chromatography/mass spectrometry) in the electrospray, positive-ion mode. An HIV fusion inhibitor or base sequence was eluted from a C18 or C8 HPLC column with a gradient of acetonitrile in a buffer of 10 mM ammonium acetate, pH 6.8. At the time of analysis, plasma samples were deproteinated with either two or three volumes of acetonitrile containing 0.5% formic acid. Duplicate calibration standards in cynomolgus plasma samples were prepared at the same time as the samples and analyzed before and after the samples containing either HIV fusion inhibitor peptide or base sequence. Pharmacokinetic properties were calculated from the plasma concentration-time data using either mono-exponential or bi-exponential mathematical models. Models were derived by non-linear least squares optimization. A 1/C^2 weighting of concentrations was used. […]

[2] = no additional components; cited from earlier work
HIV-1LA1 = settings: cited from earlier work
IIIB = assay: In vitro resistance selection in MT2 cells, cMAGI susceptibility, isolate IIIB; assay type: cell-based, HIV; settings: starting isolate IIIB
Excerpt: (§1) Assessment of biological properties included measurement of antiviral activity against HIV-1 strains. […] These assays score for reduction of infectious virus titer employing the indicator cell lines MAGI or the CCR5 expressing derivative cMAGI. Both cell lines exploit the ability of HIV-1 tat to transactivate the expression of a β-galactosidase reporter gene driven by the HIV-LTR. The β-gal reporter has been modified to localize in the nucleus and can be detected with the X-gal substrate as intense nuclear staining within a few days of infection. […] The number of infected cells for each control and peptide dilution was determined with the CCD-imager, and then the IC50 was calculated (expressed in μg/ml).
(§2) MT2 cells were infected with virus isolates (IIIB, 030, 060 and 098) and cultured in increasing concentrations of SEQ ID NO:2 (enfuvirtide) or SEQ ID NO:9 to select for resistance. […] Cultures were monitored for cytopathic effect (CPE) using standard techniques and when maximal CPE was achieved, a small aliquot of virus was used for subsequent rounds of infection. […] Peptide-free virus stocks were characterized for gp41 genotypic changes by dideoxy sequencing chemistries and phenotypic susceptibility was determined using a cMAGI infectivity assay.

584.000030 = assay: In vitro resistance selection in MT2 cells, cMAGI susceptibility, isolate 584.000030; assay type: cell-based, HIV; settings: starting isolate 584.000030
Excerpt: as §1, §2

584.000060 = assay: In vitro resistance selection in MT2 cells, cMAGI susceptibility, isolate 584.000060; assay type: cell-based, HIV; settings: starting isolate 584.000060
Excerpt: as §1, §2

584.000098 = assay: In vitro resistance selection in MT2 cells, cMAGI susceptibility, isolate 584.000098; assay type: cell-based, HIV; settings: starting isolate 584.000098
Excerpt: as §1, §2

[3] = system: virus isolates (IIIB, 030, 060 and 098); assay: In vitro resistance selection, geometric mean over the four isolates; assay type: cell-based, HIV; settings: Geometric Mean of four isolates
Excerpt: MT2 cells were infected with virus isolates (IIIB, 030, 060 and 098) and cultured in increasing concentrations of SEQ ID NO:2 (enfuvirtide) or SEQ ID NO:9 to select for resistance. The initial peptide concentration was approximately 2 times the IC50 of each peptide against the corresponding wild type isolate. Peptide concentrations were maintained by adding fresh peptide every 1-3 days. Cultures were monitored for cytopathic effect (CPE) using standard techniques and when maximal CPE was achieved, a small aliquot of virus was used for subsequent rounds of infection. Peptide concentrations were increased 2 to 4-fold depending on the length of time in culture when compared to the growth rate of wild type virus. During the course of selection, peptide-free virus stocks were also collected. Peptide-free virus stocks were characterized for gp41 genotypic changes by dideoxy sequencing chemistries and phenotypic susceptibility was determined using a cMAGI infectivity assay.

[4] = 10 mg/ml in PBS, pH 7.3 to 7.5, 37° C., after several hours
HIV-1 IIIB = settings: cited from earlier work

Ac-TTWEAWDRAIAEYAARIEALLRAAQEQQEKLEAALREL-NH2 [SEQ ID NO:10, TTWEAWDRAIAEYAARIEALLRAAQEQQEKLEAALREL]
Clearance [1]: <0.33 mL/min/kg

enfuvirtide
concentration achievable in an injectable aqueous solution without problems of solubility and stability [2]: ≤ 100 mg/mL | EC50 blocking infection of target cells (HIV-1LA1): 0.5 ng/mL | Fold Change in IC50 (IIIB): 27 fold | Fold Change in IC50 (584.000030): 19 fold | Fold Change in IC50 (584.000060): 7 fold | Fold Change in IC50 (584.000098): 912 fold | Fold Change in IC50 [3]: 42 fold | stability of the solution (peptide remaining in solution) [4]: minimal peptide detected in solution

MTWMEWDREINNYTSLIHSLIEESQNQQEKNEQELL [T651]
IC50 blocking infection of target cells (HIV-1 IIIB): 5 ng/mL

Ac-TTWEAWDRAIAEYAARIEALLRALQEQQEKNEAALREL-NH2 [SEQ ID NO:9, TTWEAWDRAIAEYAARIEALLRALQEQQEKNEAALREL]
Clearance [1]: <0.33 mL/min/kg
